Measured values published in ChEMBL document CHEMBL3351912, “Influence of azide incorporation on binding affinity by small papain inhibitors” (Bioorg Med Chem, 2014).

biological target: T1, Papain (Carica papaya, UniProt P00784); assay: Inhibition of papaya papain using Z-Phe-Arg-pNA substrate by spectrophotometry
T1 sequence (P00784 whole entry): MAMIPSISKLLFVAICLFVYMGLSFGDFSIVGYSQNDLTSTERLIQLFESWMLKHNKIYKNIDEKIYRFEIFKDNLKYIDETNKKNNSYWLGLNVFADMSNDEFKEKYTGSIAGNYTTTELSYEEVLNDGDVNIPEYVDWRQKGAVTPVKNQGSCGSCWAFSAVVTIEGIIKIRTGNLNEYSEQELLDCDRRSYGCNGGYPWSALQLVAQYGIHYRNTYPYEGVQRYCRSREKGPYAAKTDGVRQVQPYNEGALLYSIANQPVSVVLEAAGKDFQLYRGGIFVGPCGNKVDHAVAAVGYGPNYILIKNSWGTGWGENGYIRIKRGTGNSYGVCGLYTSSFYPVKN

| IC50 [nM] | SMILES |
| --- | --- |
| 270 | N#CCNC(=O)[C@H](Cc1ccccc1)NC(=O)c1ccc(CN=[N+]=[N-])cc1 |
| 280 | N#CCNC(=O)[C@H](Cc1ccc(O)cc1)NC(=O)c1ccc(CN=[N+]=[N-])cc1 |
| 710 | N#CCNC(=O)[C@H](CCc1ccccc1)NC(=O)c1ccc(CN=[N+]=[N-])cc1 |
| 980 | N#CCNC(=O)[C@H](CCc1ccc(O)cc1)NC(=O)c1ccc(CN=[N+]=[N-])cc1 |
| 51200 | N#CCNC(=O)[C@H](Cc1ccc(O)cc1)NC(=O)c1ccc(-c2ccc(CN=[N+]=[N-])cc2)cc1 |

More lines, now with the values behind:

| SMILES | IC50 [nM] |
| --- | --- |
| N#CCNC(=O)[C@H](Cc1ccccc1)NC(=O)c1ccc(-c2ccccc2)cc1 | 220 |
| CC(C)C[C@H](NC(=O)c1ccc(CN=[N+]=[N-])cc1)C(=O)NCC#N | 2270 |
| CCCC[C@H](NC(=O)c1ccc(CN=[N+]=[N-])cc1)C(=O)NCC#N | 7100 |
| CC(C)C[C@H](NC(=O)c1ccc(-c2ccc(CN=[N+]=[N-])cc2)cc1)C(=O)NCC#N | 1580 |
| N#CCNC(=O)[C@H](Cc1ccccc1)NC(=O)c1ccc(-c2ccc(CN=[N+]=[N-])cc2)cc1 | 13900 |
| CC(C)C[C@H](NC(=O)CN=[N+]=[N-])C(=O)N[C@@H](CC(C)C)C(=O)NCC#N | 2710 |
| CC(C)C[C@H](NC(=O)CN=[N+]=[N-])C(=O)N[C@@H](Cc1ccccc1)C(=O)NCC#N | 2250 |
| N#CCNC(=O)[C@H](Cc1ccccc1)NC(=O)[C@H](Cc1ccccc1)NC(=O)CN=[N+]=[N-] | 3970 |
| N#CCNC(=O)[C@H](Cc1ccccc1)NC(=O)c1ccc(Cn2nnc3c2CC[C@H]2[C@@H](CC3)[C@H]2COC(=O)NCCOCCOCCN)cc1 | 350 |
| N#CCNC(=O)[C@H](Cc1ccccc1)NC(=O)c1ccc(Cn2nnc3c2-c2ccccc2CN(C(=O)CCCC(=O)NCCOCCOCCN)c2ccccc2-3)cc1 | 5980 |
| N#CCNC(=O)[C@H](Cc1ccccc1)NC(=O)c1ccccc1 | 360 |
